In US5055594A, “Fluorogenic trypotophanase substrates” (Becton, Dickinson and Company, priority 1990, dated 1991):

Key:
Citrobacter freundii = test: Determination of the indole reaction of microorganisms (substrate on cellulose disks, AMC release); format: cell-based; conditions: for FLUORESCENCE INCREASE (ng AMC/min): 3×10^8 cfu/ml, phosphate buffer pH 8.4 with toluene, ex 365 nm, em 440 nm
Experimental: (§1) Aliquots of 20 microliters of a 0.5% solution of the substrate of Example I dissolved in dimethylsulfoxide were added to cellulose disks (catalog no. 740-E, Schleicher and Schuell, Inc. Keene, N.H.). The DMSO was removed by vacuum dessication. The dried disks were placed in the wells of a black polystyrene microwell tray. Four of the disks were each inoculated with 25 microliters of a suspension containing 3×10^8 colony forming units per ml of the known indole positive microorganisms Escherichia coli and Citrobacter diversus and the known indole negative microorganisms Klebsiella pneumoniae and Citrobacter freundii. The suspensions were made in phosphate buffer, pH 8.4, containing toluene at a concentration of 2 drops per 5 ml of buffer to permeabilize the bacteria. Four disks were inoculated with buffer alone to serve as controls. The disks were excited at 365 nm using a xenon lamp and fluorescence was measured at 1 minute intervals for 10 minutes at a wavelength of 440 nm using a Fluoroskan II (Flow Laboratories, McLean, Va. 22102) reader. Results from the four tubes for each organism were averaged and are expressed in the Table as nanograms of free AMC released per minute.

Klebsiella pneumoniae = test: as above; format: cell-based
Experimental: as §1

Citrobacter diversus = test: as above; format: cell-based; conditions: for FLUORESCENCE INCREASE (ng AMC/min): 3×10^8 cfu/ml, phosphate buffer pH 8.4 with toluene, ex 365 nm, em 440 nm
Experimental: as §1

Escherichia coli = test: as above; format: cell-based; conditions: for FLUORESCENCE INCREASE (ng AMC/min): 3×10^8 cfu/ml, phosphate buffer pH 8.4 with toluene, ex 365 nm, em 440 nm
Experimental: as §1

tryptophanase = test: Reaction of serine-AMC-carbamate with tryptophanase (fluorescence increase); format: biochemical; conditions: 1.19×10^-6 M substrate, pH 8.2, 100 μL of 5.0 mq/mL tryptophanase; excitation 365 nm
Experimental: To a 1.19×10^-6 M solution of serine-AMC-carbamate dissolved in 100 mM potassium phosphate buffer, pH 8.2 was added 100 μL of a 5.0 mq/mL solution of tryptophanase. Fluorescence increase was measured at 440 nm, with excitation at 365 nm. Starting fluorescence of the serine-AMC-carbamate solution was 26 relative units. After addition of the enzyme, fluorescence at 440 nM increased at a rate of 97 units/minute. […] Fluorescence increase in the absence of enzyme was negligible.

Cc1cc(=O)oc2cc(NC(=O)OC[C@H](N)C(=O)O)ccc12 [serine-AMC-carbamate]
Fluorescence increase compared with the control (Citrobacter freundii; C. freundii (indole negative), versus buffer control): about the same fluorescence increase as the control | FLUORESCENCE INCREASE (ng AMC/min) (Citrobacter freundii; C. freundii strain 2027): 0.8 ng AMC/min | FLUORESCENCE INCREASE (ng AMC/min) (Citrobacter freundii; C. freundii strain 2058): 0.45 ng AMC/min | Fluorescence increase compared with the control (Klebsiella pneumoniae; K. pneumoniae (indole negative), versus buffer control): about the same fluorescence increase as the control | FLUORESCENCE INCREASE (ng AMC/min) (Klebsiella pneumoniae; K. pneumoniae strain 6N3696N1, 3×10^8 cfu/ml, phosphate buffer pH 8.4 with toluene, ex 365 nm, em 440 nm): 0.5 ng AMC/min | Fluorescence increase compared with the control (Citrobacter diversus; C. diversus (indole positive), versus buffer control): much larger fluorescence increases | FLUORESCENCE INCREASE (ng AMC/min) (Citrobacter diversus; C. diversus strain 404): 5.35 ng AMC/min | FLUORESCENCE INCREASE (ng AMC/min) (Citrobacter diversus; C. diversus strain 2075): 4.4 ng AMC/min | Fluorescence increase compared with the control (Escherichia coli; E. coli (indole positive), versus buffer control): much larger fluorescence increases | FLUORESCENCE INCREASE (ng AMC/min) (Escherichia coli; E. coli strain 1W9901N1): 1.53 ng AMC/min | FLUORESCENCE INCREASE (ng AMC/min) (Escherichia coli; E. coli strain 2W0803N1): 1.85 ng AMC/min | FLUORESCENCE INCREASE (ng AMC/min) (Escherichia coli; E. coli strain 4H8162N1): 1.6 ng AMC/min | FLUORESCENCE INCREASE (ng AMC/min) (Escherichia coli; E. coli strain 7W0563N1): 1.7 ng AMC/min | Rate of fluorescence increase at 440 nM after addition of the enzyme (tryptophanase): 97 units/minute
